In patent US10676468B2, “N-(3-heteroarylaryl)-4-arylarylcarboxamides and analogs as hedgehog pathway inhibitors and use thereof” (IMPACT Therapeutics, Inc., priority 2012, dated 2020):
pIC50: −log10 of the molar value.

Tests used:
Assay type in all cases: cell-based, mouse
[1] = tested on: Hedgehog Signaling Pathway; experiment: SAG-induced differentiation of C3H10T1/2 cells into osteoblastic cells, intracellular alkaline phosphatase activity; settings: 1 μM SAG, 5 days, alkaline phosphatase activity (OD405), read-out: IC50 values of compounds that inhibit Hh pathway
Source text: (§1) The Application of SAG to Induce Pluripotent Mesenchymal Mouse Embryonic Cell C3H/10T1/2 to Differentiate into Osteoblastic Cells for the Determination of the Inhibitory Activity of N-(3-(1H-benzo[d]imidazol-2-yl)-4-chlorophenyl)-2-methyl-4-((2S,6R)-2,6-dimethylmorpholino)benzamide and Analogs on Hedgehog Signaling Pathway
The intracellular alkaline phosphatase activity is a reliable indication of the differentiation process. Therefore this enzymatic activity can be used to monitor the activity of hedgehog pathway inhibitors.
The C3H10T1/2 cells were grown in DMEM medium supplemented with 10% fetal bovine serum (FBS, Hyclone) at 37° C. with 5% CO2. 10000 cells were sown to each well of a 96-well microplate a day before the experiment and grown overnight. At the day of experiment, the inducing medium and inhibitor solutions were prepared as follows: the reference compound and testing compounds were serially diluted 1 to 3 and 1 to 10 in DMSO to seven concentrations with the eighth concentration being DMSO. A 10-fold dilution was prepared by mixing 10 μL of the DMSO dilution with 90 μL of fresh growing medium. […] Pre-sown cells were taken out from incubator and the medium was removed. To each well, 180 μL inducing medium was added and followed immediately with 20 μL of testing or reference compound dilutions. The testing compound concentrations are between 10 μM and 1 nM. The cells were then return to CO2 incubator to grow additional 5 days at 37° C.
(§2) After incubating for 5 days, the cells were taken out and intracellular alkaline phosphatase activity was tested. The alkaline phosphatase activity was measured as follows:
1) Preparation of Substrate Solution:
(§3) Solution A: A 0.5 mM MgCl2 (Sigma Prod. No. M-0250) solution was prepared.
(§4) After the pH value was adjusted to 9.8 with 5 M HCl at 37° C., the total volume was adjusted to 100 mL.
(§5) After it is completely dissolved the total volume was adjusted to 10 mL with the final concentration being 1 mM.
Substrate reaction medium: To 10 mL of solution B, 250 μL of solution A and 200 μL of solution C were added, and mixed well.
2) the Measurement of Intracellular Alkaline Phosphatase Activity:
(§6) After taking out the cells from the incubator, the cell culture medium was removed and cells were washed twice with PBS. 20 μL of lysis solution (0.2% Triton solution) was added to each well. After being shaken for 30 min at room temperature, each well of cells received 80 μL of substrate reaction medium. The microplate was placed immediately into a VariSkan Flashplate reader and absorbance at OD405 was read as background reading. The plate was replaced back to cell culture incubator at 37° C. for additional 30 min and the absorbance was read again using VariSkan Flash plate reader at OD405.
(§7) The data were analyzed by subtracting the background reading from the reading at 30 min, and the obtained numbers were plotted and analyzed with Prism 5 software (GraphPad). The phosphatase activity (calculated OD405) was plotted against the log concentration of testing compound, and the obtained plot was fitted with non-linear curve fitting equation to calculate IC50 values. The curve fitting equation is Y=Bottom+(Top−Bottom)/(1+10^((X−Log IC50))). X is the logarithm of concentration. Y is the measure of alkaline phosphatase activity (OD405).
(§8) The calculated IC50 value is a measurement of the inhibitory activity of compound to Hh pathway.

[2] = tested on: Hedgehog Signaling Pathway; experiment: SHH-induced differentiation of C3H10T1/2 cells into osteoblastic cells, intracellular alkaline phosphatase activity; settings: 10 nM SHH-N, 5 days, alkaline phosphatase activity (OD405), read-out: IC50 values of compounds that inhibit Hh pathway
Procedure: as §1, with “SHH” for “SAG”, “C3H10T1/2” for “C3H/10T1/2”
The C3H10T1/2 cells were grown in DMEM medium supplemented with 10% fetal bovine serum (FBS, Hyclone) at 37° C. with 5% CO2. 10000 cells were sown to each well of a 96-well microplate a day before the experiment and grown overnight. […] The reference compound and testing compounds were serially diluted 1 to 3 and 1 to 10 in DMSO to seven concentrations with the eighth concentration being DMSO. A 10-fold dilution was prepared by mixing 10 μL of the DMSO dilutions with 90 μL of fresh growing medium. Pre-sown cells were taken out from incubator and the medium was removed. To each well, 180 μL of inducing medium containing 10 nM of SHH-N was added and followed immediately with 20 μL of 10× testing or reference compound dilutions. The testing compound concentrations are between 10 μM and 10 nM. The cells were then returned to CO2 incubator to grow additional 5 days at 37° C.
as §2
3) Preparation of Substrate Solution:
as §3, §4, §5
Substrate reaction medium: to 10 mL of solution B, 250 μL of solution A and 200 μL of solution C were added, and mixed well.
4) The Measurement of Intracellular Alkaline Phosphatase Activity:
as §6
as §7, with “Y=Bottom+(Top−Bottom)/(1+10^(X−Log IC50)).” for “Y=Bottom+(Top−Bottom)/(1+10^((X−Log IC50))).”
as §8

[3] = tested on: Hedgehog Signaling Pathway; experiment: Gli-Luc reporter gene cell assay in C3H10T1/2/Gli-Luc cells stimulated with Shh; settings: Mus musculus, C3H 10T1/2, 24 h, 30 nM Shh, luciferase activity (RLU), read-out: IC50 values of compounds that inhibit Hh pathway
Source text: The Application of Reporter Gene Cell Assay for the Determination of the Inhibitory Activity of N-(3-(1H-benzo[d]imidazol-2-yl)-4-chlorophenyl)-2-methyl-4-((2S,6R)-2,6-dimethylmorpholino) benzamide and Analogs on Hedgehog Signaling Pathway
The binding of Sonic hedgehog (Shh) to its receptor Patched 1 initiates numerous intracellular signal transmission, and leads to the nuclear translocation of Gli and the elevated transcription of Gli target genes. When C3H10T1/2 cells are stably transfected with the Gli-Luc plasmids containing the luciferase gene under the control of Gli response element and stimulated with Shh, the expression of luciferase is elevated. Luciferase activity is indicative of the hedgehog signaling pathway activity. Therefore, the inhibitory activity of compounds on hedgehog signaling pathway can be measured using the luciferase activity when the transfected cells are stimulated with Shh.
The day before experiment, C3H10T1/2/Gli-Luc cells in log phase of growth were seeded into 96 well plate at a density of 20000 cells per well. The cells were maintained in DMEM (Hyclone) supplemented with 10% FBS (Hyclone) and incubated at 37° C. with 5% CO2 overnight. The compounds to be examined were diluted into 7 different concentrations by series of dilutions (⅓ and 1/10), and the eighth point of concentration is the DMSO control. Those solutions were diluted 100-fold in the fresh growth medium. The cells were taken out of the incubator and the medium of cultured cells were removed. Then, each well was added in an orderly manner with 80 μL of fresh growth medium, 20 μL of medium pre-dilution of positive compound and compounds to be tested, as well as 100 μL of growth medium containing 30 nM of Shh. The cells are returned to the incubator, and incubated for 24 hours.
Measurement of luciferase activity: After taking the 96 well plate out of the incubator, the supernatants were discarded and the cells were washed twice with PBS. Thereafter, each well was dispensed with 20 μL of lysis buffer (Promega E1531), and the plate was shaken for 30 min at room temperature. Following transferring 5 μL of cell lysate into 384 well plate (Greiner 781074), adding 25 μL of luciferase reaction buffer (Promega E1501) into each well and mixing the plate, the relative light unit (RLU) was immediately captured by VarioSkan Flash.
The data were analyzed with Prism 5 software (GraphPad). The relative light unit (RLU) was plotted against the log concentration of testing compound, and the obtained plot was fitted with non-linear curve fitting equation to calculate IC50 values. The curve fitting equation is Y (RLU)=Bottom+(Top−Bottom)/(1+10^((X−Log IC50))). X is the logarithm of concentration. Y is the measure of relative light unit (RLU).
as §8

[4] = Mus musculus, C3H 10T1/2, 120 h

pIC50 [1, 4]	pIC50 [2, 4]	pIC50 [3]	Molecule	pIC50 [1]	pIC50 [2]
6.79	6.87	–	Cc1cc(-c2ccc(C(F)(F)F)cc2)ccc1C(=O)Nc1cccc(-c2nc3ccccn3n2)c1 [Example 73, N-(3-([1,2,4]triazolo[1,5-a]pyridin-2-yl)phenyl)-3-methyl-4′-(trifluoromethyl)biphenyl-4-carboxamide]	–	–
6.72	8.35	–	Cc1cc(-c2ccc(C(F)(F)F)cc2)ccc1C(=O)Nc1ccc(F)c(-c2nc3ccccc3[nH]2)c1 [Example 74, N-(3-(1H-benzo[d]imidazol-2-yl)-4-fluorophenyl)-3-methyl-4′-(trifluoromethyl)biphenyl-4-carboxamide]	–	–
7.77	8.54	–	Cc1cc(-c2ccc(C(F)(F)F)cc2)ccc1C(=O)Nc1ccc(Br)c(-c2nc3ccccc3[nH]2)c1 [Example 75, N-(3-(1H-benzo[d]imidazol-2-yl)-4-bromophenyl)-3-methyl-4′-(trifluoromethyl)biphenyl-4-carboxamide]	–	–
< 5.00	< 5.00	–	COc1ccc(NC(=O)c2ccc(-c3ccc(C(F)(F)F)cc3)cc2C)cc1-c1nc2ccccc2[nH]1 [Example 76, N-(3-(1H-benzo[d]imidazol-2-yl)-4-methoxyphenyl)-3-methyl-4′-(trifluoromethyl)biphenyl-4-carboxamide]	–	–
6.51	7.35	–	Cc1cc(N2CCN(C)CC2)ccc1C(=O)Nc1ccc(Cl)c(-c2nc3ccccc3[nH]2)c1 [Example 92, N-(3-(1H-benzo[d]imidazol-2-yl)-4-chlorophenyl)-2-methyl-4-(4-methylpiperazin-1-yl)benzamide]	–	–
7.33	8.41	–	Cc1ccc(NC(=O)c2ccc(N3C[C@@H](C)N(C)[C@@H](C)C3)cc2Cl)cc1-c1nc2ccccc2[nH]1 [Example 102, N-(3-(1H-benzo[d]imidazol-2-yl)-4-methylphenyl)-2-chloro-4-((3S,5R)-3,4,5-trimethylpiperazin-1-yl)benzamide]	–	–
6.16	7.12	–	Cc1cc(N2CCNCC2)ccc1C(=O)Nc1ccc(Cl)c(-c2nc3ccccc3[nH]2)c1 [Example 108, N-(3-(1H-benzo[d]imidazol-2-yl)-4-chlorophenyl)-2-methyl-4-(piperazin-1-yl)benzamide]	–	–
–	–	9.55	C[C@@H]1CN(c2cc(Cl)c(C(=O)Nc3ccc(Cl)c(-c4ncc(-c5ccsc5)[nH]4)c3)cc2F)C[C@H](C)N1C [Example 142, N-(3-(5-(thiophen-3-yl)-1H-imidazol-2-yl)-4-chlorophenyl)-2-chloro-5-fluoro-4-((3S,5R)-3,4,5-trimethylpiperazin-1-yl)benzamide]	–	–

The remaining lines, values behind:

Molecule	pIC50 [1, 4]	pIC50 [2, 4]	pIC50 [3]	pIC50 [1]	pIC50 [2]
Cc1cc(-c2ccc(C(F)(F)F)cc2)ccc1C(=O)Nc1cc(-c2nc3ccccc3[nH]2)cc(C(F)(F)F)c1 [Example 62, N-(3-(1H-benzo[d]imidazol-2-yl)-5-(trifluoromethyl)phenyl)-3-methyl-4′-(trifluoromethyl)biphenyl-4-carboxamide]	< 5.00	6.39	–	–	–
Cc1cc(-c2ccc(C(F)(F)F)cc2)ccc1C(=O)Nc1cc(Cl)cc(-c2nc3ccccc3[nH]2)c1 [Example 63, N-(3-(1H-benzo[d]imidazol-2-yl)-5-chlorophenyl)-3-methyl-4′-(trifluoromethyl)biphenyl-4-carboxamide]	5.87	7.41	–	–	–
Cc1cc(-c2ccc(C(F)(F)F)cc2)ccc1C(=O)Nc1cccc(-c2nc3ccccc3[nH]2)c1Cl [Example 64, N-(3-(1H-benzo[d]imidazol-2-yl)-2-chlorophenyl)-3-methyl-4′-(trifluoromethyl)biphenyl-4-carboxamide]	6.20	5.95	–	–	–
Cc1c(NC(=O)c2ccc(N3C[C@@H](C)O[C@@H](C)C3)nc2)cccc1-c1nc2ccccc2[nH]1 [Example 65, N-(3-(1H-benzo[d]imidazol-2-yl)-2-methylphenyl)-6-((2S,6R)-2,6-dimethylmorpholino)nicotinamide]	6.28	6.30	–	–	–
Cc1cc(-c2ccc(C(F)(F)F)cc2)ccc1C(=O)Nc1cccc(-c2nc3ccccc3[nH]2)n1 [Example 72, N-(6-(1H-benzo[d]imidazol-2-yl)pyridin-2-yl)-3-methyl-4′-(trifluoromethyl)biphenyl-4-carboxamide]	< 5.00	6.33	–	–	–
N-(3-(imidazo[1,2-a]pyridin-2-yl)-4-chlorophenyl)-3-methyl-4′-(trifluoromethyl)biphenyl-4-carboxamide [Example 67]	–	–	–	< 5.00	7.17
